The values below come from ChEMBL document CHEMBL2385067, “Preparation of S14161 and its analogues and the discovery of 6-bromo-8-ethoxy-3-nitro-2H-chromene as a more potent antitumor agent in vitro” (2013).

Structures are written as SMILES. The source made the active and inactive calls. The rule behind the calls is not given here.

In one experiment the test system is LP-1. The experiment in a line: Cytotoxicity against human LP-1 cells after 24 to 72 hrs by SRB assay. It is filed as functional. On the technique in general: The SRB assay estimates cell density from bound dye.
A further experiment deals with K562. Description: Cytotoxicity against human K562 cells after 24 to 72 hrs by SRB assay. The class given is functional.
In experiment [1] the test system is HeLa. Description: Growth inhibition of human HeLa cells at 5 uM after 24 hrs by SRB assay. The class given is functional, cell-based.
For experiment [2], the system named is HeLa. Description: Inhibition of PI3K in human HeLa cells assessed as inhibition of EGF1-induced AKT phosphorylation up to 20 uM after 24 hrs by Western blot analysis. It is filed as cell-based.
The subject of experiment [3] is SK-OV-3. Description: Growth inhibition of human SKOV3 cells at 20 uM after 72 hrs by SRB assay. It is filed as functional, cell-based.
A further experiment concerns MDA-MB-231. Description: Cytotoxicity against human MDA-MB-231 cells after 24 to 72 hrs by SRB assay. It is filed as functional.
For another experiment, the system named is HUVEC. The experiment in a line: Antiangiogenic activity in HUVEC assessed as inhibition of cell migration by measuring area of wounded gap at 5 uM after 8 to 24 hrs by wound healing assay. The class given is functional, Homo sapiens. Also on record: scale not given: the % may be the effect or the level left.
Another experiment has as its system NCI-H460. Description: Growth inhibition of human H460 cells at 20 uM after 72 hrs by SRB assay. The class given is functional, cell-based.
In experiment [4] the test system is A549. The experiment in a line: Growth inhibition of human A549 cells at 20 uM after 72 hrs by SRB assay. It is filed as functional, cell-based.
Experiment [5] deals with HeLa. The experiment in a line: Growth inhibition of human HeLa cells at 20 uM after 72 hrs by SRB assay. The class given is functional, cell-based.
The test system of another experiment is SPCA1. The experiment in a line: Growth inhibition of human SPCA1 cells at 20 uM after 72 hrs by SRB assay. It is filed as functional, cell-based.
Experiment [6] has as its system A549. The experiment in a line: Induction of apoptosis in human A549 cells assessed as activation of caspase-3 at 10 uM. The class given is functional, cell-based.
Experiment [7] relates to H47D. Description: Growth inhibition of human H47D cells at 20 uM after 72 hrs by SRB assay. It is filed as functional, cell-based.
Another experiment relates to PC-3. The experiment in a line: Growth inhibition of human PC3 cells at 20 uM after 72 hrs by SRB assay. It is filed as functional, cell-based.
For experiment [8], the system named is A549. The experiment in a line: Growth inhibition of human A549 cells at 5 to 20 uM after 24 hrs by SRB assay. It is filed as functional, cell-based.
The test system of experiment [9] is HeLa. The experiment in a line: Growth inhibition of human HeLa cells at 20 uM after 24 hrs by SRB assay. The class given is functional.
The next experiment concerns B16. The experiment in a line: Cytotoxicity against mouse B16 cells after 24 to 72 hrs by SRB assay. The class given is functional.
Experiment [10] can be described thus: Cytotoxicity against human U87 cells after 24 to 72 hrs by SRB assay. The class given is functional, U-87MG ATCC. To be noted: U-87 MG.
For experiment [11], the system named is SK-OV-3. Description: Inhibition of PI3K in human SKOV3 cells assessed as inhibition of EGF1-induced AKT phosphorylation up to 20 uM after 24 hrs by Western blot analysis. The class given is cell-based. (In general: In western blotting, separated proteins are transferred to a membrane and probed.)
The test system of experiment [12] is H47D. Description: Inhibition of PI3K in human H47D cells assessed as inhibition of EGF1-induced AKT protein level up to 20 uM after 24 hrs by Western blot analysis. It is filed as cell-based.
In experiment [13] the test system is A549. The experiment in a line: Inhibition of PI3K in human A549 cells assessed as inhibition of EGF1-induced AKT phosphorylation up to 20 uM after 24 hrs by Western blot analysis. The class given is cell-based.
Experiment [14] relates to H47D. The experiment in a line: Inhibition of PI3K in human H47D cells assessed as inhibition of EGF1-induced AKT phosphorylation up to 20 uM after 24 hrs by Western blot analysis. It is filed as cell-based.
Experiment [15] relates to SK-OV-3. The experiment in a line: Inhibition of PI3K in human SKOV3 cells assessed as inhibition of EGF1-induced AKT protein level up to 20 uM after 24 hrs by Western blot analysis. The class given is cell-based.
Experiment [16] concerns HeLa. Description: Inhibition of PI3K in human HeLa cells assessed as inhibition of EGF1-induced AKT protein level up to 20 uM after 24 hrs by Western blot analysis. It is filed as cell-based.
The test system of experiment [17] is A549. Description: Induction of apoptosis in human A549 cells assessed as activation of caspase-3 at 5 uM. The class given is functional, cell-based.
In experiment [18] the test system is A549. Description: Inhibition of PI3K in human A549 cells assessed as inhibition of EGF1-induced AKT protein level up to 20 uM after 24 hrs by Western blot analysis. It is filed as cell-based.
In experiment [19] the test system is HeLa. The experiment in a line: Growth inhibition of human HeLa cells after 24 hrs by SRB assay. The class given is functional, cell-based.

By GI50 is commonly meant the concentration that inhibits growth by half. On to `CCOc1cccc2c1OC(c1ccccc1)C([N+](=O)[O-])=C2` (centres undefined), for which the figures for the GI50 in the experiment on LP-1 and with K562 were 0.96 µM and 1.18 µM, respectively.
The matching figures for `CCOc1cccc2c1OC(c1ccc(OC)cc1)C([N+](=O)[O-])=C2` (centres undefined): 3.16 µM and 4.86 µM.
Turning to `CCOc1cccc2c1OC(c1ccc(F)cc1)C([N+](=O)[O-])=C2` (centres undefined), the “growth inhibition (GI)” value with HeLa [1], in the experiment on SK-OV-3 [3], with NCI-H460, with A549 [4], in the experiment on HeLa [5] and with SPCA1 was “Active” throughout. Moreover, the “growth inhibition (GI)” value in the experiment with H47D [7], in the experiment on PC-3, with A549 [8] and in the experiment on HeLa [9] was “Active” throughout. The inhibition entry in the experiment with HeLa [2] and in the experiment with SK-OV-3 [11] was “Active” in each case. For the same compound, the GI50 in the experiment with MDA-MB-231 stood at 8.53 µM; in the experiment with LP-1, 0.57 µM; in the experiment with K562, 1.24 µM; in the experiment on B16 it was 23.3 µM; in experiment [10], 18.7 µM. Also, in the experiment with HUVEC, the Activity is less than 50%. In addition, the outcome in the experiment with A549 [6] was Active.
Consider `CCOc1cccc2c1OC(c1ccc(C#N)cc1)C([N+](=O)[O-])=C2` (centres undefined), for which the concentration for 50% growth inhibition (GI50) stood at 0.44 µM in the experiment with LP-1 and 1.02 µM in the experiment with K562.
For the compound `CCOc1cc(Br)cc2c1OCC([N+](=O)[O-])=C2`, the “growth inhibition (GI)” value in the experiment with HeLa [1], in the experiment on SK-OV-3 [3], in the experiment on NCI-H460, in the experiment with A549 [4], in the experiment on HeLa [5] and in the experiment on SPCA1 was “Active” throughout. Besides, the “growth inhibition (GI)” value in the experiment with H47D [7], with PC-3 and in the experiment on A549 [8] was “Active” in each case. Moreover, the inhibition entry with HeLa [2], in the experiment on A549 [13], in the experiment with H47D [14] and in the experiment on SK-OV-3 [11] was “Active” each time. In addition, the inhibition entry with H47D [12], with SK-OV-3 [15], with HeLa [16] and in the experiment on A549 [18] was “inactive” throughout. For the same compound, the GI50 in the experiment on MDA-MB-231 was determined as 2.03 µM; in the experiment on LP-1 it was 0.33 µM; in the experiment on K562, 0.92 µM; in the experiment on B16, 20.4 µM; in experiment [10], 12.6 µM. In addition, the Activity with HUVEC was determined as 20%. Moreover, the result with A549 [6] and in the experiment with A549 [17] was Active. Further, the inhibition of growth at 20 µM in the experiment on HeLa [9] (read-out: GI) was greater than 90%. The “growth inhibition (GI)” value in the experiment on HeLa [19] was “Dose-dependent effect”.
For the compound `CCOc1cccc2c1OCC([N+](=O)[O-])=C2`, the GI50 with LP-1 is 0.64 µM; in the experiment on K562, 1.68 µM.
